Measurements as given in patent US6534523B1, “Hepatitis C inhibitor tri-peptides” (Boehringer Ingelheim (Canada) Ltd., priority 1998, dated 2003).

How the values were obtained:
[1] = test system: NS3 protease in Huh-7 cells co-transfected with NS3-NS4A-NS4B-NS5A-tTA and SEAP constructs; assay: NS3 protease surrogate cell-based assay (Example 39), SEAP reporter; details: Homo sapiens, SEAP activity, 24-h incubation, read-out: EC50 as determined by the assay of Example 39
Text: NS3 Protease Cell-based Assay
This assay was done with Huh-7 cells, a human cell line derived from a hepatoma, co-transfected with 2 DNA constructs:
one expressing a polyprotein comprising the HCV non-structural proteins fused to tTA in the following order: NS3-NS4A-NS4B-NS5A-tTA (called NS3);
the other expressing the reporter protein, secreted alkaline phosphatase, under the control of tTA (called SEAP).
The polyprotein must be cleaved by the NS3 protease for the mature proteins to be released. Upon release of the mature proteins, it is believed that the viral proteins will form a complex at the membrane of the endoplasmic reticulum while tTA will migrate to the nucleus and transactivate the SEAP gene. Therefore, reduction of NS3 proteolytic activity should lead to reduction of mature tTA levels and concomitant decrease in SEAP activity.
To control for other effects of the compounds, a parallel transfection was done where a construct expressing tTA alone (called tTA) was co-transfected with the SEAP construct such that SEAP activity is independent of NS3 proteolytic activity. […] After a 24-h incubation period, an aliquot of the medium was drawn and the SEAP activity in this aliquot was measured with the Phospha-Light kit (Tropix). […]

[2] = target: porcine pancreatic elastase (PPE) (Sus scrofa, UniProt P00772); assay: Specificity assay (Example 40), porcine pancreatic elastase; type: biochemical
Description: (§1) The specificity of the compounds was determined against a variety of serine proteases: human leukocyte elastase, porcine pancreatic elastase and bovine pancreatic α-chymotrypsin and one cysteine protease: human liver cathepsin B. In all cases a 96-well plate format protocol using a calorimetric p-nitroaniline (pNA) substrate specific for each enzyme was used. Each assay included a 1 h enzyme-inhibitor pre-incubation at 30° C. followed by addition of substrate and hydrolysis to ≈30% conversion as measured on a UV Thermomax® microplate reader. Substrate concentrations were kept as low as possible compared to KM to reduce substrate competition. Compound concentrations varied from 300 to 0.06 μM depending on their potency.
(§2) The final conditions for each assay were as follows:
(§3) 50 mM Tris-HCl pH 8, 0.5 M Na2SO4, 50 mM NaCl, 0.1 mM EDTA, 3% DMSO, 0.01% Tween-20 with;
[100 μM Succ-AAPF-pNA and 250 pM α-chymotrypsin], [133 μM Succ-AAA-pNA and 8 nM porcine elastase], [133 μM Succ-AAV-pNA and 8 nM leukocyte elastase]; or […]
After 60 min pre-incubation at 30° C., 20 μL of substrate solution (50 mM Tris-HCl, pH 8, 0.5 M Na2SO4, 50 mM NaCl, 0.1 mM EDTA, 665 μM Succ-AAA-pNA) were added to each well and the reaction was further incubated at 30° C. for 60 min after which time the absorbance was read on the UV Thermomax® plate reader. […]
The percentage of inhibition was calculated using the formula: […]

[3] = target: bovine pancreatic α-chymotrypsin (Bos taurus, UniProt P00766); assay: Specificity assay (Example 40), bovine pancreatic α-chymotrypsin; type: biochemical; details: read-out: α-Chym. activity in the specificity assay of Example 40
Description: as §1, §2, §3
[100 μM Succ-AAPF-pNA and 250 pM α-chymotrypsin], [133 μM Succ-AAA-pNA and 8 nM porcine elastase], [133 μM Succ-AAV-pNA and 8 nM leukocyte elastase]; or
(§4) The sequential 2-fold dilutions of the inhibitor solution were performed on a separate plate by the liquid handler using 50 mM Tris-HCl pH 8, 50 mM NaCl, 0.1 mM EDTA, 0.02% Tween-20, 15% DMSO. All other specificity assays were performed in a similar fashion.
(§5) The percentage of inhibition was calculated using the formula:
(§6) [1-((UVinh−UVblank)/(UVctl−UVblank))]×100 […]

[4] = target: T1, human liver cathepsin B (Cat B) (Homo sapiens, UniProt P07858); assay: Specificity assay (Example 40), human liver cathepsin B; type: biochemical
T1 construct: from tissue; host or cells: human liver
Description: as §1, §2
[100 mM NaHPO4 pH 6, 0.1 mM EDTA, 3% DMSO, 1 mM TCEP, 0.01% Tween-20, 30 μM Z-FR-pNA and 5 nM cathepsin B (the stock enzyme was activated in buffer containing 20 mM TCEP before use)].
as §4, §5, §6

Chain of porcine pancreatic elastase (PPE) (P00772 27-266): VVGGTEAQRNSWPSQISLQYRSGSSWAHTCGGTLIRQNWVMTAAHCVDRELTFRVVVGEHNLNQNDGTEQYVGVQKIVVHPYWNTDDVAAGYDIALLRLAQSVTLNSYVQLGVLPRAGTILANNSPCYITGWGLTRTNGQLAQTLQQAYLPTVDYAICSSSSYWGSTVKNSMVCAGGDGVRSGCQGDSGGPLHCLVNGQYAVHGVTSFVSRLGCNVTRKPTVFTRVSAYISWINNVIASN

## C=C[C@@H]1C[C@]1(NC(=O)[C@@H]1C[C@@H](Oc2cc(-c3ccccc3)nc3cc(OC)ccc23)CN1C(=O)[C@@H](NC(=O)OC(C)(C)C)C(C)C)C(=O)O [compound 601]
[1]
  EC50: 8.2 µM
[2]
  IC50: > 75 µM
[3]
  IC50: > 75 µM
[4]
  IC50: > 75 µM
